# Read-outs that look alike come from different tables or passages of the source.
# Columns and labels:
# [1] = Plasma protein binding by rapid equilibrium dialysis, dog plasma; assay type: in vitro ADME
# Description: Plasma protein binding and brain homogenate binding for study compounds in mouse, dog, and rat by rapid equilibrium dialysis
# In practice, unbound fractions in plasma and brain tissue were assessed using rapid equilibrium dialysis in vitro. Separately a pharmacokinetic study was run in vivo whereby a dose of the compound of interest was given at T=0 hours and at subsequent timepoints (eg 0.5, 1 and 4 hours) plasma and separately brain samples were analysed for total concentration of the compound of interest. These total concentrations could then be adjusted with the unbound fraction to give the unbound concentrations in the plasma and brain.
# The test compounds were incubated in plasma and brain homogenate from the relevant species at 37 °C in RED device with inserts (8K MWCO, Thermo scientific) for 4 hours at 5 µM in triplicates. 350 µL of 150 mM phosphate buffered saline (PBS, pH 7.4) was used as the receiver side solutions. […] After 10-minute centrifugation at 13 200 rpm, the sample supernatants were analysed with an LC-MS/MS, to obtain the unbound fraction of the test compound (Fub). The unbound fraction was calculated from the peak area ratios obtained for each matrix: Fub = CPBS /Cplasma; [formula] where CPBS and Cplasma are the analyte concentrations in PBS (receiver) and plasma (donor), respectively. […]
# [2] = Kpuu determination in the dog (plasma and CSF time course after oral capsule); assay type: in vivo, male beagle dog
# Description: Example 3 was loaded as a solid, Batch No. C2210502, into enteric coated capsule (0#). Fasted male beagle dog was dosed with pentagastrin (0.25 mg/mL and 0.024 mL/kg) at 6 µg/kg by intramuscular (IM) injection at approximately 30 minutes prior to administration of test compound. Capsule containing 20 mg/kg of Example 3 were administered orally and plasma and CSF samples were taken pre-dose, 0.5, 1, 2, 4, 8 12 and 24 hours post dosing and analysed for concentration of Example 3 in analogous fashion to the study above.
# Kpuu = AUC0−infcsf/(AUC0−infplasma×(%Fuplasma/100)) [formula] Kpuu = 6414/(23816×(55,5/100)) = 6414/13218 = 0.49 [formula]
# [3] = Blood-brain-barrier permeability in mice after IV administration; settings: male, CD1 (ICR), mouse, intravenous, 3 mg/kg
# [4] = male, beagle, CSF, 20 mg/kg oral capsule, read-out: CSF concentration
# [5] = male, beagle, plasma, 20 mg/kg oral capsule, read-out: Plasma concentration
smiles,measurement,setting,value
"CC(C)(C)CC[C@H](NCc1ccc2c(c1)COCC2)C(=O)O [Example 3, (S)-2-((isochroman-7-ylmethyl)amino)-5,5-dimethylhexanoic acid]",%Fuplasma,"[1]; dog plasma, as used for the Kpuu calculation",55%
same,"fraction unbound at 4 h, 5 µM","[1]; pH 7.4, Dog plasma, 5 µM, 4 hours, 37 °C, read-out: Unbound (Fu, %)",0.555
same,CSF concentration,"[2]; 20 mg/kg oral capsule, 0,5 h",BQL
same,Plasma concentration,"[2]; 20 mg/kg oral capsule, 0,5 h","1,04 ng/mL"
same,CSF concentration,"[2]; 20 mg/kg oral capsule, 1 h",BQL
same,Plasma concentration,"[2]; 20 mg/kg oral capsule, 1 h","3,20 ng/mL"
same,CSF concentration,"[2]; 20 mg/kg oral capsule, 2 h","13,7 ng/mL"
same,CSF concentration,"[2]; 20 mg/kg oral capsule, 24 h","27,7 ng/mL"
same,Plasma concentration,"[2]; 20 mg/kg oral capsule, 24 h","87,1 ng/mL"
same,AUC(0-inf),"[2]; male, beagle, CSF, 20 mg/kg oral capsule",6410 ng·h/mL
same,concentration at 4 h,[2]; [4],745 ng/mL
same,concentration at 8 h,[2]; [4],698 ng/mL
same,concentration at 12 h,[2]; [4],196 ng/mL
same,AUC(0-inf),"[2]; male, beagle, Plasma, 20 mg/kg oral capsule",23800 ng·h/mL
same,concentration at 2 h,"[2]; male, beagle, plasma, 20 mg/kg oral capsule, 2 h",370 ng/mL
same,concentration at 4 h,[2]; [5],5350 ng/mL
same,concentration at 8 h,[2]; [5],1400 ng/mL
same,concentration at 12 h,[2]; [5],390 ng/mL
same,concentration at 0.5 h,[3]; brain,61.2 ng/g
same,Kp at 0.5 h,[3]; brain/plasma,0.21
same,concentration at 0.5 h,[3]; plasma,292 ng/mL

# From patent EP4342530A1, “SORTILIN MODULATORS” (Insusense ApS, priority 2022, dated 2024)
